Results published in patent publication US6002009A, “Di-substituted 1,4-piperidine esters and amides having 5-HT4 antagonistic activity” (Boehringer Ingelheim Italia, S.p.A., priority 1995, dated 1999).

These compounds were tested against 5-HT4 receptor (Sus scrofa, UniProt Q6Q253) (assay: 5-HT4 receptor binding (competition against [^3 H]-GR 113808, pig striatum)). Conditions: 0.1 nM [^3 H]-GR 113808, 30 min at 37° C., read-out: Ki (affinity for the 5-HT4 receptor).
Protocol: The affinity of the compounds of formula (I) for 5-HT4 serotoninergic receptors was tested "in vitro" by receptor binding studies in the pig striatum, a tissue particularly rich in 5-HT4 receptors.
Receptor binding studies on 5-HT4 receptor were carried out to determine the affinity of the test compounds.
Pig striatum was removed, cleaned and homogenized (w/v 1:70) with an Ultra-Turrax at maximal speed for 30 s, followed by use of a Potter-Elvehjem homogenizer (30 strokes) in 50 mM Hepes buffer, pH 7.4 and filtered through two layers of cheese-cloth.
Binding curves for the different compounds were derived indirectly from competition experiments against 0.1 nM [^3 H]-GR 113808.
A 1 ml aliquot of homogenate was incubated for 30 min at 37° C. in the presence of the marker ligand and different concentrations of the cold ligands.
The incubation was stopped by rapid filtration using an automatic apparatus (1H -110 Inotech). The filters (Inotech glass fibre filter, type G7) were then transferred to scintillation vials containing 4 ml of Filter Count (Packard) and the radioactivity present was counted by liquid scintillation spectrometry (Kontron Betamat V). Assays were carried out in triplicated and non specific binding was defined as the radioactivity bound or entrapped in the filter when the incubation medium contained 10 μM of BIMU 0001 (3-ethyl-2,3-dihydro-2-oxo-benzimidazole-1(3a-tropyl carboxamide). Non specific binding was about 10-15%. The inhibition constant (Ki) was calculated after correction for the radioligand occupancy shift according to the equation of Cheng and Prusoff (Biochem. Pharmacol. 22, 3099, 1973).

Sequence of 5-HT4 receptor (Q6Q253 1-402): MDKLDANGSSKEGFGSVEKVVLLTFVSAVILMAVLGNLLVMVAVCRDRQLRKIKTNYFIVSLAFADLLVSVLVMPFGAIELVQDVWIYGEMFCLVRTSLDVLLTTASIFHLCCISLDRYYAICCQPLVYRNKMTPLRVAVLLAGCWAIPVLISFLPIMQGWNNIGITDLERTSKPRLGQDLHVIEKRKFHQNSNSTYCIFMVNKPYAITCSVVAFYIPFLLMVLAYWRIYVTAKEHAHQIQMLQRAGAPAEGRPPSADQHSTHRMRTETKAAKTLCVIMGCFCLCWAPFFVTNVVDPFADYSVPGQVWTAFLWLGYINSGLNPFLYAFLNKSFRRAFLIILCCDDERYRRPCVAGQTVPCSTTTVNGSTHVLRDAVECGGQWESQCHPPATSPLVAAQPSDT

Point of comparison: `CCNC(=O)N[C@@H](CO)CN1CCC(COC(=O)n2c3ccccc3c3ccccc32)CC1` [Compound 13, R(+)-Carbazole-9-carboxylic acid {1-[2-(3-ethyl-ureido)-3-hydroxy-propyl]-piperidin-4-yl} methyl ester], Ki 4.3 nM. Against it:
- COc1cc(N)c(Cl)cc1C(=O)OCC1CCN(C[C@H](Cc2ccccc2)NC(=O)OCc2ccccc2)CC1 [Compound 11, S(+)-4-Amino-5-chloro-2-methoxybenzoic acid [1-(2-benzyloxycarbonyl-amino-3-phenyl-propyl)-piperidin-4-yl]methyl ester] — 3.9-fold lower, 1.1 nM
- O=C(Nc1ccccc1)N[C@@H](CO)CN1CCC(COC(=O)c2c[nH]c3ccc(F)cc23)CC1 [Compound 16, R(+)-5-Fluoro-1H-indol-3-carboxylic acid {1-[2-(3-phenyl-ureido)-3-hydroxy-propyl]-piperidin-4-yl} methyl ester] — within 1.5-fold, 2.9 nM
- CCNC(=O)N[C@@H](CO)CN1CCC(CNC(=O)n2c(=O)n(CC)c3ccccc32)CC1 [Compound 36] — within 1.5-fold, 3 nM
- CCOC(=O)N[C@@H](CCSC)CN1CCC(COC(=O)c2cc(Cl)c(N)cc2OC)CC1 [Compound 9, S(+)-4-Amino-5-chloro-2-methoxy-benzoic acid [1-(2-ethoxycarbonyl-amino-4-methylthio-butyl)-piperidin-4-yl]methyl ester] — the same, 4.3 nM
- CCNC(=O)N[C@@H](Cc1c[nH]c2ccccc12)CN1CCC(COC(=O)c2cc(Cl)c(N)cc2OC)CC1 [Compound 1, S(+)-4-Amino-5-chloro-2-methoxy-benzoic acid {1-[2-(3-ethyl-ureido)-3-(1H-indol-3-yl)propyl]piperidin-4-yl} methyl, ester] — within 1.5-fold, 4.6 nM
- CCn1c(=O)n(C(=O)OCC2CCN(C[C@H](C)NC(=O)OCc3ccccc3)CC2)c2ccccc21 [Compound 23, S(+)-3-Ethyl-2-oxo-2,3-dihydro-benzimidazol-1-carboxylic acid [1-(2-benzyloxycarbonyl-amino)-propyl-piperidin-4-yl]-methyl ester] — 5-fold lower, 0.86 nM
- CCOC(=O)N[C@@H](CCSC)CN1CCC(CNC(=O)n2c(=O)n(CC)c3ccccc32)CC1 [Compound 34, S(+)-3-Ethyl-2-oxo-2,3-dihydro-benzimidazol-1-carboxamide-[1-(2-ethoxycarbonylamino-4-methylthio-butyl)-piperidin-4-yl-methl]] — within 1.5-fold, 3.2 nM
- CCn1c(=O)n(C(=O)NCC2CCN(C[C@H](CCSC)NC(=O)Nc3ccccc3)CC2)c2ccccc21 [Compound 26, S(-)-3-Ethyl-2-oxo-2,3-dihydro-benzimidazol-1-carboxamide-{1-[2-(3-phenyl-ureido)-4-methylthio-butyl]-piperidin-4-yl-methyl}] — 4.3-fold lower, 1 nM
- CCn1c(=O)n(C(=O)NCC2CCN(C[C@H](CO)NC(=O)Nc3ccccc3)CC2)c2ccccc21 [Compound 35, R(+)-3-Ethyl-2-oxo-2,3-dihydro-benzimidazol-1-carboxamide-{1-[2-(3-phenyl-ureido)-3-hydroxy-propyl]-piperidin-4-yl-methyl}] — 2.7-fold lower, 1.6 nM
- CCn1c(=O)n(C(=O)NCC2CCN(C[C@H](CO)NC(=O)OCc3ccccc3)CC2)c2ccccc21 [Compound 37, R(+)-3-Ethyl-2-oxo-2,3-dihydro-benzimidazol-1-carboxamide-[1-(2-benzyloxycarbonylamino-3-hydroxy-propyl)-piperidin-4-yl-methyl]] — 12-fold lower, 0.37 nM
- C[C@@H](CN1CCC(COC(=O)n2c(=O)[nH]c3ccccc32)CC1)NC(=O)OCc1ccccc1 [Compound 21, S(+)-2-Oxo-2,3-dihydro-benzimidazol-1-carboxylic acid [1-(2-benzyloxycarbonyl-amino)-propyl-piperidin-4-yl]-methyl ester] — 3.3-fold lower, 1.3 nM
- COc1[nH]c2ccc(F)cc2c1C(=O)OCC1CCN(C[C@H](CO)NC(=O)OCc2ccccc2)CC1 [Compound 17, R(+)-5-Fluoro-2-methoxy-1H-indol-3-carboxylic acid [1-(2-benzyloxycarbonyl-amino-3-hydroxy-propyl)-piperidin-4-yl]methyl ester] — 27-fold lower, 0.16 nM
- CCn1c(=O)n(C(=O)NCC2CCN(C[C@H](CC(N)=O)NC(=O)Nc3ccccc3)CC2)c2ccccc21 [Compound 30, S(+)-3-Ethyl-2-oxo-2,3-dihydro-benzimidazol-1-carboxamide-{1-[2-(3-phenyl-ureido)-3-carbamoyl-propyl]-piperidin-4-yl-methyl}] — the same, 4.3 nM
- CCOC(=O)N[C@@H](CO)CN1CCC(COC(=O)n2c3ccccc3c3ccccc32)CC1 [Compound 12, R(+)-Carbazole-9-carboxylic acid [1(2-ethoxycarbonyl-amino-3-hydroxy-propyl)-piperidin-4-yl]methyl ester] — 1.5-fold lower, 2.8 nM
- COc1cc(N)c(Cl)cc1C(=O)OCC1CCN(C[C@H](Cc2c[nH]c3ccccc23)NC(=O)OCc2ccccc2)CC1 [Compound 10, S(+)-4-Amino-5-chloro-2-methoxybenzoic acid {1-[2-benzyloxycarbonyl-amino-3-(1H-indol-3-yl)-propyl]piperidin-4-yl} methyl ester] — 2-fold lower, 2.1 nM
- CCOC(=O)N[C@@H](CO)CN1CCC(COC(=O)c2c(OC)[nH]c3ccc(F)cc23)CC1 [Compound 19, R(+)-5-Fluoro-2-methoxy-1H-indol-3-carboxylic acid [1-(2-ethoxycarbonyl-amino-3-hydroxy-propyl)piperidin-4-yl]methyl ester] — 17-fold lower, 0.25 nM
